Source: ChEMBL document CHEMBL6178015, “Discovery of a Novel Serine-Targeting Covalent Inhibitor against HCES2A for Treating Drug-induced Diarrhea and Ulcerative Colitis” (J Med Chem, 2025)
The source made the active and inactive calls. No cut-off for these calls is given here.

Tests used:
Homo sapiens = organism: Homo sapiens; assay: Selectivity index, ratio of IC50 for inhibition of human CES1A to IC50 for inhibition of human CES2A
[1] = Inhibition of human CES1A using NLMe as substrate preincubated for 3 mins followed by substrate addition and measured after 20 mins by chemiluminescence analysis
[2] = Inhibition of human CES2A using fluorescein diacetate as substrate preincubated for 3 mins followed by substrate addition and measured after 30 mins by fluorescence microplate reader
Mus musculus [3] = assay: Antiinflammatory activity against DSS-induced ulcerative colitis mouse model assessed as restoration of colon histology at 700 mg/kg,IG administered once daily 7 days by AB-PAS staining based analysis; assay type: functional, organism-based; settings: time 7.0 day
Mus musculus [4] = assay: Antiinflammatory activity against DSS-induced ulcerative colitis mouse model assessed as goblet cell loss at 700 mg/kg,IG administered once daily 7 days by AB-PAS staining based analysis; assay type: functional, organism-based; settings: time 7.0 day
Mus musculus [5] = assay: Antiinflammatory activity against DSS-induced ulcerative colitis mouse model assessed as epithelial damage at 700 mg/kg,IG administered once daily 7 days by AB-PAS staining based analysis; assay type: functional, organism-based; settings: time 7.0 day

IC50 [2] [nM]	Structure (SMILES)	further results
0.542	CCCCCCCCC(=O)c1cccc2oc(-c3cc(OC)ccc3OC(=O)N3CCOCC3)cc12	Ratio IC50 (Homo sapiens): 53.9; IC50 [1]: 29.2 nM
881	CCCCCCCCC(=O)c1cccc2oc(-c3ccccc3N)cc12	
596	C=CCOC(=O)Nc1ccccc1-c1cc2c(C(=O)CCCCCC)cccc2o1	
1340	CCCCCCC(=O)c1cccc2oc(-c3ccccc3NC(=O)OCC(CC)CCCC)cc12 (centres undefined)	
623	CCCCCCC(=O)c1cccc2oc(-c3cc(C)ccc3NC(=O)OCCCC)cc12	
3110	CCCC(=O)c1cccc2oc(-c3cc(C)ccc3N)cc12	
612	CCCCCCC(=O)c1cccc2oc(-c3cc(C)ccc3N)cc12	
616	CCCCCCC(=O)c1cccc2oc(-c3ccccc3NC(=O)OCc3ccccc3)cc12	
3640	CCCCCCC(=O)c1cccc2oc(-c3cc(C)ccc3NC(=O)OCc3ccccc3)cc12	
	O=C(O)c1cc(/N=N/c2ccc(S(=O)(=O)Nc3ccccn3)cc2)ccc1O	Activity (Mus musculus [3]): Active; Activity (Mus musculus [4]): inactive; Activity (Mus musculus [5]): inactive
6.37	CCCCCCCCC(=O)c1cccc2oc(-c3cc(OC)ccc3OC(=O)N(CC)CC)cc12	
2140	CCCCCCC(=O)c1cccc2oc(-c3cc(C)ccc3NC(=O)OCC3c4ccccc4-c4ccccc43)cc12	
944	CCCCCCC(=O)c1cccc2oc(-c3ccccc3N)cc12	
0.249	CCCCCCC(=O)c1cccc2oc(-c3cc(OC)ccc3OC(=O)N3CCCC3)cc12	Ratio IC50 (Homo sapiens): 22.7; IC50 [1]: 5.65 nM
983	CCCC(=O)c1cccc2oc(-c3cc(C)ccc3NC(=O)OCCCl)cc12	

Structure (SMILES)	IC50 [2] [nM]	further results
CCCCCCC(=O)c1cccc2oc(-c3cc(OC)ccc3OC(=O)N(C)C)cc12	0.509	Ratio IC50 (Homo sapiens): 44.8; IC50 [1]: 22.9 nM
